Test results taken from patent publication US20220282217A1, “COMPOSITIONS AND METHODS FOR PREPARING T CELL COMPOSITIONS AND USES THEREOF” (priority 2019, published 2022).
Like-named read-outs stand apart in the source and are kept apart here. Where a SMILES comes first, the peptide text is derived from it.

Molecular target: HLA-A02.01 (Homo sapiens, UniProt P04439, D140Y/D185E/D98H/E176V/E277Q/G131W/G231S/I119V/I121R/I166T/I218V/L300P/L318F/N151K/N90K/P208A/P217A/Q86G/Q94H/R138H/R169H/T345S)
Experiment: Class I MHC peptide binding affinity (displacement of radiolabeled reference peptide)
Summary of the method: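 Radiolabeled reference peptide/MHCI complexes; test peptide titration, 2 d incubation; bound label remaining read by size-exclusion gel filtration.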

[1] = allele A02.01, read-out: Observed Affinity (IC50, (nM))
[2] = Observed Affinity (IC50, (nM)), allele A02.01

CSCC[C@H](NC(=O)[C@H](CCC(=O)O)NC(=O)[C@H](CC(C)C)NC(=O)[C@H](CC(C)C)NC(=O)[C@H](CC(C)C)NC(=O)[C@H](CC(=O)O)NC(=O)[C@H](CC(N)=O)NC(=O)[C@H](CC(C)C)NC(=O)[C@@H]1CCCN1)C(=O)N[C@@H](CC(C)C)C(=O)O (H-PLNDLLLEML-OH; N-terminus and C-terminus assumed)
IC50 [1]: 12000 nM

CSCC[C@H](NC(=O)[C@H](CCC(=O)O)NC(=O)[C@H](CC(C)C)NC(=O)[C@H](CC(C)C)NC(=O)[C@H](CC(C)C)NC(=O)[C@H](CC(=O)O)NC(=O)[C@H](CO)NC(=O)[C@H](CC(C)C)NC(=O)[C@@H]1CCCN1)C(=O)N[C@@H](CC(C)C)C(=O)O (H-PLSDLLLEML-OH; N-terminus and C-terminus assumed)
IC50 [1]: 6470 nM

CC[C@H](C)[C@H](NC(=O)[C@H](CC(C)C)NC(=O)[C@@H](N)CCC(N)=O)C(=O)N[C@@H](CCSC)C(=O)N[C@@H](CCC(N)=O)C(=O)N[C@@H](CC(C)C)C(=O)N[C@@H](CCSC)C(=O)N1CCC[C@H]1C(=O)N[C@@H](Cc1ccccc1)C(=O)NCC(=O)O (H-QLIMQLMPFG-OH; N-terminus and C-terminus assumed)
Kd (EGFR T790M peptides, HLA allele A02.01, read-out: Affinity): 5210 nM | IC50 [1]: 5930 nM

CC(C)C[C@H](NC(=O)[C@H](CC(=O)O)NC(=O)[C@H](CO)NC(=O)[C@H](CCC(N)=O)NC(=O)[C@H](CCC(N)=O)NC(=O)[C@@H](N)CCC(N)=O)C(=O)N[C@@H](CCC(N)=O)C(=O)N1CCC[C@H]1C(=O)N1CCC[C@H]1C(=O)N[C@@H](C)C(=O)O (H-QQQSDLQPPA-OH; N-terminus and C-terminus assumed)
IC50 [2]: 646 nM

CC(C)C[C@H](NC(=O)[C@H](CC(=O)O)NC(=O)[C@H](CO)NC(=O)[C@H](CCC(N)=O)NC(=O)[C@@H](N)CCC(N)=O)C(=O)N[C@@H](CCC(N)=O)C(=O)N1CCC[C@H]1C(=O)N1CCC[C@H]1C(=O)N[C@@H](C)C(=O)O (H-QQSDLQPPA-OH; N-terminus and C-terminus assumed)
IC50 [2]: 70 nM

CC[C@H](C)[C@H](NC(=O)[C@H](CCSC)NC(=O)[C@@H](NC(=O)CNC(=O)[C@@H](NC(=O)[C@@H](N)CCC(N)=O)[C@@H](C)O)C(C)C)C(=O)N[C@@H](CS)C(=O)N[C@@H](C)C(=O)N[C@@H](Cc1ccc(O)cc1)C(=O)N[C@@H](CC(C)C)C(=O)O (H-QTGVMICAYL-OH; N-terminus and C-terminus assumed)
IC50 [1]: 9760 nM

CC(C)C[C@H](NC(=O)[C@H](Cc1c[nH]cn1)NC(=O)[C@H](Cc1c[nH]c2ccccc12)NC(=O)[C@H](CC(C)C)NC(=O)[C@@H](N)CCCNC(=N)N)C(=O)N[C@@H](CC(C)C)C(=O)N[C@@H](CC(C)C)C(=O)N[C@@H](CCC(N)=O)C(=O)N[C@H](C(=O)O)C(C)C (H-RLWHLLLQV-OH; N-terminus and C-terminus assumed)
IC50 [1]: 1.3 nM

CC(C)C[C@H](NC(=O)[C@H](Cc1c[nH]cn1)NC(=O)[C@H](Cc1c[nH]c2ccccc12)NC(=O)[C@H](CC(C)C)NC(=O)[C@@H](N)CCCNC(=N)N)C(=O)N[C@@H](CC(C)C)C(=O)N[C@@H](CC(C)C)C(=O)N[C@@H](CCC(N)=O)C(=O)N[C@H](C(=O)N[C@H](C(=O)O)[C@@H](C)O)C(C)C (H-RLWHLLLQVT-OH; N-terminus and C-terminus assumed)
IC50 [1]: 50.9 nM

CC(C)C[C@H](NC(=O)[C@H](CCCNC(=N)N)NC(=O)[C@@H](NC(=O)[C@H](CC(C)C)NC(=O)[C@@H](N)CO)C(C)C)C(=O)N[C@@H](CO)C(=O)N[C@@H](CO)C(=O)N[C@@H](CS)C(=O)N[C@H](C(=O)O)C(C)C (H-SLVRLSSCV-OH; N-terminus and C-terminus assumed)
IC50 [1]: 29.9 nM

CC[C@H](C)[C@H](NC(=O)[C@H](Cc1ccc(O)cc1)NC(=O)[C@H](CC(C)C)NC(=O)[C@@H](N)CO)C(=O)N[C@H](C(=O)NCC(=O)N[C@@H](Cc1ccccc1)C(=O)N[C@@H](Cc1ccc(O)cc1)C(=O)NCC(=O)O)C(C)C (H-SLYIVGFYG-OH; N-terminus and C-terminus assumed)
IC50 [1]: 1060 nM

CC[C@H](C)[C@H](NC(=O)[C@H](CC(C)C)NC(=O)[C@H](CCC(N)=O)NC(=O)[C@@H](NC(=O)[C@@H](NC(=O)[C@@H](N)CO)[C@@H](C)O)C(C)C)C(=O)N[C@@H](CCSC)C(=O)N[C@@H](CCC(N)=O)C(=O)N[C@@H](CC(C)C)C(=O)O (H-STVQLIMQL-OH; N-terminus and C-terminus assumed)
Kd: 7260 nM | IC50 [2]: 8540 nM

CC[C@H](C)[C@H](NC(=O)[C@@H](NC(=O)[C@@H](NC(=O)[C@H](CC(C)C)NC(=O)[C@@H](NC(=O)[C@@H]1CCCN1C(=O)CNC(=O)CNC(=O)[C@@H](NC(=O)[C@@H](N)[C@@H](C)O)[C@@H](C)CC)[C@@H](C)O)C(C)C)[C@@H](C)CC)C(=O)O (H-TIGGPTLVII-OH; N-terminus and C-terminus assumed)
IC50 [1]: 10700 nM

CC(C)C[C@H](NC(=O)[C@H](CS)NC(=O)[C@H](Cc1c[nH]c2ccccc12)NC(=O)[C@H](CC(C)C)NC(=O)[C@H](CO)NC(=O)[C@H](CO)NC(=O)[C@H](CCCNC(=N)N)NC(=O)[C@H](CCC(N)=O)NC(=O)[C@H](CC(C)C)NC(=O)[C@@H](N)[C@@H](C)O)C(=O)O (H-TLQRSSLWCL-OH; N-terminus and C-terminus assumed)
IC50 [1]: 118 nM

CC[C@H](C)[C@H](NC(=O)[C@H](CCC(N)=O)NC(=O)[C@@H](N)[C@@H](C)O)C(=O)N[C@@H](CO)C(=O)N[C@@H](CO)C(=O)N[C@@H](C)C(=O)N[C@H](C(=O)N[C@@H](CCC(=O)O)C(=O)N[C@@H](Cc1ccc(O)cc1)C(=O)N[C@@H](CC(C)C)C(=O)O)[C@@H](C)O (H-TQISSATEYL-OH; N-terminus and C-terminus assumed)
IC50 [2]: 2640 nM

CC(C)C[C@H](NC(=O)[C@@H](N)C(C)C)C(=O)N[C@H](C(=O)N[C@H](C(=O)N[C@H](C(=O)N[C@@H](CO)C(=O)N[C@H](C(=O)N[C@@H](CC(=O)O)C(=O)N[C@H](C(=O)O)C(C)C)[C@@H](C)O)[C@@H](C)O)C(C)C)[C@@H](C)O (H-VLTVTSTDV-OH)
IC50 [1]: 295 nM

CC[C@H](C)[C@H](NC(=O)[C@H](CCCCN)NC(=O)[C@H](Cc1ccc(O)cc1)NC(=O)[C@@H](NC(=O)[C@@H](NC(=O)[C@H](CC(=O)O)NC(=O)[C@H](CO)NC(=O)[C@H](CCSC)NC(=O)[C@@H](N)C(C)C)[C@@H](C)O)[C@@H](C)O)C(=O)O (H-VMSDTTYKI-OH; N-terminus and C-terminus assumed)
IC50 [2]: 19.6 nM

CC(C)C[C@H](NC(=O)[C@H](CO)NC(=O)CNC(=O)[C@H](CC(C)C)NC(=O)[C@H](CO)NC(=O)[C@H](CCCNC(=N)N)NC(=O)[C@H](Cc1c[nH]c2ccccc12)NC(=O)[C@H](CCC(N)=O)NC(=O)[C@@H](N)C(C)C)C(=O)O (H-VQWRSLGSL-OH; N-terminus and C-terminus assumed)
IC50 [1]: 4730 nM

CC(C)C[C@H](NC(=O)[C@H](CCCNC(=N)N)NC(=O)[C@@H](N)C(C)C)C(=O)N[C@@H](CO)C(=O)N[C@@H](CO)C(=O)N[C@@H](CS)C(=O)N[C@H](C(=O)N1CCC[C@H]1C(=O)N[C@H](C(=O)N[C@@H](C)C(=O)O)C(C)C)C(C)C (H-VRLSSCVPVA-OH; N-terminus and C-terminus assumed)
IC50 [1]: 1210 nM

CC[C@H](C)[C@H](NC(=O)[C@@H](NC(=O)[C@@H](NC(=O)[C@@H](N)Cc1ccc(O)cc1)[C@@H](C)CC)[C@@H](C)CC)C(=O)N[C@@H](CCC(=O)O)C(=O)N[C@@H](Cc1ccccc1)C(=O)N[C@@H](CCSC)C(=O)N[C@H](C(=O)N[C@@H](Cc1ccc(O)cc1)C(=O)NCC(=O)O)[C@@H](C)O (H-YIIIEFMTYG-OH; N-terminus and C-terminus assumed)
IC50 [2]: 186 nM

CC[C@H](C)[C@H](NC(=O)[C@H](CC(=O)O)NC(=O)[C@H](CC(C)C)NC(=O)[C@H](CC(C)C)NC(=O)[C@H](Cc1ccccc1)NC(=O)[C@H](Cc1ccccc1)NC(=O)[C@H](C)NC(=O)[C@@H](NC(=O)[C@@H](NC(=O)[C@@H](N)Cc1ccc(O)cc1)[C@@H](C)CC)[C@@H](C)O)C(=O)O (H-YITAFFLLDI-OH; N-terminus and C-terminus assumed)
IC50 [1]: 64.5 nM

CC[C@H](C)[C@H](NC(=O)[C@H](CC(N)=O)NC(=O)[C@H](CCSC)NC(=O)[C@H](Cc1c[nH]cn1)NC(=O)[C@H](CC(N)=O)NC(=O)CNC(=O)[C@H](CC(C)C)NC(=O)[C@@H](N)Cc1ccc(O)cc1)C(=O)N[C@@H](C)C(=O)N[C@@H](CC(N)=O)C(=O)O (H-YLGNHMNIAN-OH; N-terminus and C-terminus assumed)
IC50 [2]: 1340 nM

CC(C)C[C@H](NC(=O)[C@H](Cc1ccccc1)NC(=O)[C@H](Cc1ccccc1)NC(=O)[C@H](CCCCN)NC(=O)[C@@H]1CCCN1C(=O)[C@H](Cc1c[nH]c2ccccc12)NC(=O)[C@H](CCCCN)NC(=O)[C@@H](NC(=O)[C@H](CC(C)C)NC(=O)[C@@H](N)Cc1ccc(O)cc1)[C@@H](C)O)C(=O)O (H-YLTKWPKFFL-OH; N-terminus and C-terminus assumed)
IC50 [1]: 42.9 nM

CC[C@H](C)[C@H](NC(=O)[C@@H](NC(=O)[C@H](CC(C)C)NC(=O)[C@@H](N)Cc1ccc(O)cc1)C(C)C)C(=O)N[C@@H](CCC(N)=O)C(=O)N[C@@H](CC(C)C)C(=O)N[C@@H](CCC(N)=O)C(=O)N[C@@H](CC(=O)O)C(=O)N[C@@H](CCCCN)C(=O)N[C@@H](Cc1ccccc1)C(=O)O (H-YLVIQLQDKF-OH)
IC50 [1]: 2060 nM

CSCC[C@H](NC(=O)[C@@H](N)Cc1ccc(O)cc1)C(=O)N[C@@H](C)C(=O)N[C@@H](CC(N)=O)C(=O)NCC(=O)N[C@@H](CO)C(=O)N[C@@H](CC(C)C)C(=O)N[C@@H](CC(C)C)C(=O)N[C@@H](CC(N)=O)C(=O)O (H-YMANGSLLN-OH; N-terminus and C-terminus assumed)
IC50 (BTK C481S peptide, HLA Allele A02.01, read-out: Affinity): 4000 nM | IC50 [1]: 4440 nM

CSCC[C@H](NC(=O)[C@H](CCCCN)NC(=O)CNC(=O)[C@H](CC(N)=O)NC(=O)[C@H](CCC(N)=O)NC(=O)[C@@H](N)Cc1ccccc1)C(=O)N[C@@H](C)C(=O)N[C@@H](CC(C)C)C(=O)N[C@@H](CO)C(=O)O [FQNGKMALS] (H-FQNGKMALS-OH; N-terminus and C-terminus assumed)
IC50 [1]: 3280 nM
